Data as given in US11046697B2, “Compounds and compositions useful for treating disorders related to NTRK” (BLUEPRINT MEDICINES CORPORATION, priority 2015, dated 2021).
Like-named read-outs stand apart in the source and are kept apart here.

Legend:
wild type NTRK1 enzyme = molecular target: T1, wild type NTRK1 enzyme (Homo sapiens, UniProt P04629); test: NTRK1 Wild Type Assay at 1 mM ATP; assay type: biochemical
T1 construct: purchased BPS Bioscience 40280
Method: NTRK1 Wild Type Assay at 1 mM ATP
The reaction was stopped by the addition of 70 μL of Stop buffer (100 mM HEPES pH 7.5, 0.015% Brij 35, 35 mM EDTA and 0.2% of Coating Reagent 3 (Caliper Lifesciences)). The plate was then read on a Caliper EZReader 2 (protocol settings: −1.7 psi, upstream voltage −500, downstream voltage −3000, post sample sip 35s).

[1] = tested on: KM12 wild type colon carcinoma cell line harboring the TPM3-NTRK1 fusion protein; test: NTRK wild type cellular assay (CellTiter-Glo growth inhibition); assay type: cell-based; details: for IC50: 72 hr, CellTiter-Glo, read-out: KM12 (WT) IC50
In short: (§1)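 KM12 (TPM3-NTRK1 fusion) or KM12 Cliff (G595R) cells at 1000 cells/well in 10% FBS media were dosed with compounds at varying concentrations in duplicate after overnight plating.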

[2] = tested on: KM12 Cliff (G595R) cell line; test: NTRK G595R mutant cellular assay (CellTiter-Glo growth inhibition); assay type: cell-based; details: for IC50: 72 hr, CellTiter-Glo
In short: as §1

[3] = 1 mM ATP, read-out: Enz NTRK1 IC50

T1 sequence (P04629 440-796 limits assumed): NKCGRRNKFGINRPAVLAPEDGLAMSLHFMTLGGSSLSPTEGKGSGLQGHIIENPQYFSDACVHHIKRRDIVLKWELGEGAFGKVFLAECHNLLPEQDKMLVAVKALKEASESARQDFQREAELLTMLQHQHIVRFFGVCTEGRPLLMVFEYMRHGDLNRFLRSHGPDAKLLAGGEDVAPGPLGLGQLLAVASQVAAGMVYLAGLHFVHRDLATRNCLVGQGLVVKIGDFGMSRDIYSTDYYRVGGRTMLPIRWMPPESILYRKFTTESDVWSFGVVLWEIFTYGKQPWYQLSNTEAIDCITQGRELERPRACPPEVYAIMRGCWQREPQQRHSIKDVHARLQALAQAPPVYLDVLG

Row | Structure (SMILES) | IC50 (wild type NTRK1 enzyme; [3]) [nM] | IC50 ([1]; Homo sapiens, KM12, 72 h) [nM] | IC50 ([2]; Homo sapiens, KM12, 72 h) [nM] | IC50 [1] [nM] | IC50 [2] [nM] | IC50 (wild type NTRK1 enzyme; wild-type NTRK enzyme, read-out: NTRK wt Enzyme Assay IC50) [nM] | GI50 ([1]; wild-type NTRK fusion cells, read-out: NTRK wt Cellular GI50) [nM] | GI50 ([2]; G595R mutant NTRK fusion cells) [nM]
1 | N#Cc1cc(F)cc([C@H]2C[C@H](F)CN2C(=O)c2n[nH]c3ncnc(N[C@@H]4CCCC(F)(F)[C@H]4O)c23)c1 [Compound 230] | < 10 | 10 to 100 | 10 to 100 |  |  |  |  | 
2 | O=C(c1n[nH]c2ncnc(N[C@@H]3CCCC(F)(F)[C@H]3O)c12)N1C[C@@H](F)C[C@@H]1c1cncc(F)c1 [Compound 231] | 10 to 100 | 10 to 100 | 100 to 1000 |  |  |  |  | 
3 | CC(C)(O)[C@H]1C[C@@H](O)[C@H](Nc2ncnc3[nH]nc(C(=O)N4C[C@@H](F)C[C@@H]4c4cc(F)ccc4F)c23)C1 [Compound 232, ((2R,4S)-2-(2,5-difluorophenyl)-4-fluoropyrrolidin-1-yl)(4-(((1R,2R,4R)-2-hydroxy-4-(2-hydroxypropan-2-yl)cyclopentyl)amino)-1H-pyrazolo[3,4-d]pyrimidin-3-yl)methanone] | < 10 | < 10 | < 10 |  |  |  |  | 
4 | COc1c(F)cc(F)cc1[C@H]1C[C@H](F)CN1C(=O)c1n[nH]c2ncnc(N[C@H]3[C@H](O)[C@H](O)[C@@H]4C[C@@H]43)c12 [Compound 233] | < 10 |  |  | < 10 | < 10 |  |  | 
5 | COc1c(F)cc(F)cc1C1CC(F)CN1C(=O)c1n[nH]c2ncnc(NC3CCCC(O)C3O)c12 (stereo not drawn) [Compound 234] | < 10 |  |  | < 10 | < 10 |  |  | 
6 | O=C(c1n[nH]c2ncnc(N[C@@H]3C=C[C@@H](O)[C@H]3O)c12)N1C[C@@H](F)C[C@@H]1c1cc(F)ccc1OC(F)F [Compound 235] | < 10 |  |  | 10 to 100 | 10 to 100 |  |  | 
7 | COc1c(F)cc(F)cc1[C@H]1C[C@H](F)CN1C(=O)c1n[nH]c2ncnc(N[C@@H]3COC[C@@H](O)[C@H]3O)c12 [Compound 236] | < 10 | < 10 | 10 to 100 |  |  |  |  | 
8 | O=C(c1n[nH]c2ncnc(N[C@@H]3CC[C@@H](O)[C@H]3O)c12)N1C[C@@H](F)C[C@@H]1c1cc(F)ccc1OC(F)F [Compound 237] | < 10 | 10 to 100 | 10 to 100 |  |  |  |  | 
9 | O=C(c1n[nH]c2ncnc(N[C@H]3[C@H](O)[C@H](O)[C@@H]4C[C@@H]43)c12)N1C[C@@H](F)C[C@@H]1c1cc(F)ccc1OC(F)F [Compound 239] | < 10 |  |  | < 10 | 10 to 100 |  |  | 
10 | O=C(c1n[nH]c2ncnc(N[C@@H]3CC[C@@H](O)[C@H]3O)c12)N1C[C@@H](F)C[C@@H]1c1cc(F)ccc1OC(F)(F)F [Compound 240] | < 10 | < 10 | < 10 |  |  |  |  | 
11 | O=C(c1n[nH]c2ncnc(NC3CCOCC3O)c12)N1CC(F)CC1c1cc(F)ccc1OC(F)(F)F (stereo not drawn) [Compound 241] | < 10 |  |  | < 10 | < 10 |  |  | 
12 | O=C(c1n[nH]c2ncnc(N[C@H]3[C@H](O)[C@H](O)[C@@H]4C[C@@H]43)c12)N1C[C@@H](F)C[C@@H]1c1cc(F)ccc1OC(F)(F)F [Compound 242] | < 10 |  |  | < 10 | < 10 |  |  | 
13 | O=C(c1n[nH]c2ncnc(NC3CCCC(O)C3O)c12)N1CC(F)CC1c1cc(F)ccc1OC(F)(F)F (stereo not drawn) [Compound 243] | < 10 |  |  | < 10 | < 10 |  |  | 
14 | O=C(c1n[nH]c2ncnc(N[C@@H]3COC[C@@H](O)[C@H]3O)c12)N1C[C@@H](F)C[C@@H]1c1cc(F)ccc1OC(F)(F)F [Compound 244] | < 10 | < 10 | < 10 |  |  |  |  | 
15 | CC(C)NC(=O)C1CCC(n2c(NC(=O)c3ccc(F)cc3)nc3ccc(CN4CCC(C(C)(C)O)CC4)cc32)CC1 (stereo not drawn) [TSR-011] |  |  |  |  |  | 2.3 | 32 | 12000
